In patent US20240018123A1, “COMPOUND FOR INHIBITING OR DISINTEGRATING ANDROGEN RECEPTOR, AND PHARMACEUTICAL USE THEREOF” (KOREA RESEARCH INSTITUTE OF CHEMICAL TECHNOLOGY, priority 2020, published 2024):
Like-named read-outs stand apart in the source and are kept apart here.

Experiments:
[1] = target: T1, Androgen receptor (AR) (Homo sapiens, UniProt P10275, T878A); experiment: Assessment of AR proteolytic activity (Western blotting of LNCap cell lysates); format: cell-based; conditions: 24 hours of treatment, Western blotting quantified with Image J
T1 construct: 5.5×10^5 LNCap cells were injected into each well of a 6-well plate; endogenous in cells; host or cells: LNCaP
T1 sequence (P10275 1-920 T878A): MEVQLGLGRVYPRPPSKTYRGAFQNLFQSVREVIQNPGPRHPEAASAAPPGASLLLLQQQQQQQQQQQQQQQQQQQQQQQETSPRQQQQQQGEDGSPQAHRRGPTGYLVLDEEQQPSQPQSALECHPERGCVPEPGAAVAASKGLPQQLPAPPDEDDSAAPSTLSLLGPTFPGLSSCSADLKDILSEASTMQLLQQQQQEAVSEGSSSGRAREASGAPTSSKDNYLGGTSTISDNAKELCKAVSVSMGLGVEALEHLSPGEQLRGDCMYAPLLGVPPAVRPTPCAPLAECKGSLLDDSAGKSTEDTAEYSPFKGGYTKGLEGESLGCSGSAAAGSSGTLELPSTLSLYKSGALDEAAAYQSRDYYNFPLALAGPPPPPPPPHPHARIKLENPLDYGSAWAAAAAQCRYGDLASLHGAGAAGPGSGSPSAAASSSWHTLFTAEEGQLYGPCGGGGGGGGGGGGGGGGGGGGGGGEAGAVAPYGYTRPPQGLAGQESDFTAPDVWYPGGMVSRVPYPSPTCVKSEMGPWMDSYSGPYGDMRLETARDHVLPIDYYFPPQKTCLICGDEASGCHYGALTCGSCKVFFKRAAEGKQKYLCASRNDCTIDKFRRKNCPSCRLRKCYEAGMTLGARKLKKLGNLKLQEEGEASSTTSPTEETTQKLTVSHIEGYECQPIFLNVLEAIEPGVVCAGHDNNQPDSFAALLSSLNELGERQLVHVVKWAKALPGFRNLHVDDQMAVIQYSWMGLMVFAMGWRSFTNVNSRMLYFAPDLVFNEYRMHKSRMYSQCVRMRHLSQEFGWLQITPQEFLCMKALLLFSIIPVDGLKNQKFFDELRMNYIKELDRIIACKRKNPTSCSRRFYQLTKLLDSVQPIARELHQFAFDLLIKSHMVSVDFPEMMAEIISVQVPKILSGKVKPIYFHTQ
Summary of the method: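 LNCap cells seeded at 5.5×10^5 per well and treated with compound for 24 hours. Lysates prepared in RIPA buffer (pH 7.5, with protease inhibitors). AR protein levels assessed by Western blot with densitometric quantification.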

[2] = tested on: VCaP cells
[3] = tested on: VCaP cells; experiment: Cytotoxicity assessment (Cell-titer-glo cell viability), VCaP; conditions: read-out: VCaP (CC50); VCaP cells, 6 days of treatment, Cell-titer-glo, vs DMSO

Degradation (1 μM treated in LNCaP, % AR remaining) [1] [%] | SMILES | CC50 [2] [nM] | CC50 [3] [nM]
9.8 | CC1(C)C(NC(=O)c2ccc(N3CCN(CCCOC4CCN(C(=O)C5CN(c6ccc7nnn(C8CCC(=O)NC8=O)c(=O)c7c6)C5)CC4)CC3)cc2)C(C)(C)C1Oc1ccc(C#N)c(Cl)c1 (stereo not shown) [Example 36, N-((1r,3r)-3-(3-chloro-4-cyanophenoxy)-2,2,4,4-tetramethylcyclobutyl)-4-(4-(3-((1-(1-(3-(2,6-dioxopiperidin-3-yl)-4-oxo-3,4-dihydrobenzo[d][1,2,3]triazin-6-yl)azetidine-3-carbonyl)piperidin-4-yl)oxy)propyl)piperazin-1-yl)benzamide] | 36.5 | –
27.3 | CC1(C)C(NC(=O)c2ccc(N3CCN(CCCOC4CCN(C(=O)COc5ccc6nnn(C7CCC(=O)NC7=O)c(=O)c6c5)CC4)CC3)cc2)C(C)(C)C1Oc1ccc(C#N)c(Cl)c1 (stereo not shown) [Example 38, N-((1r,3r)-3-(3-chloro-4-cyanophenoxy)-2,2,4,4-tetramethylcyclobutyl)-4-(4-(3-((1-(2-((3-(2,6-dioxopiperidin-3-yl)-4-oxo-3,4-dihydrobenzo[d][1,2,3]triazin-6-yl)oxy)acetyl)piperidin-4-yl)oxy)propyl)piperazin-1-yl)benzamide] | 43.2 | –
2.1 | CC1(C)C(NC(=O)c2ccc(N3CCN(CCCOC4CCN(c5ccc6nnn(C7CCC(=O)NC7=O)c(=O)c6c5)CC4)CC3)cc2)C(C)(C)C1Oc1ccc(C#N)c(Cl)c1 (stereo not shown) [Example 39, N-((1r,3r)-3-(3-chloro-4-cyanophenoxy)-2,2,4,4-tetramethylcyclobutyl)-4-(4-(3-((1-(3-(2,6-dioxopiperidin-3-yl)-4-oxo-3,4-dihydrobenzo[d][1,2,3]triazin-6-yl)piperidin-4-yl)oxy)propyl)piperazin-1-yl)benzamide] | 86.6 | –
12.3 | CC1(C)C(NC(=O)c2ccc(N3CCN(C(=O)COc4ccc5nnn(C6CCC(=O)NC6=O)c(=O)c5c4)CC3)cc2)C(C)(C)C1Oc1ccc(C#N)c(Cl)c1 (stereo not shown) [Example 41, N-((1r,3r)-3-(3-chloro-4-cyanophenoxy)-2,2,4,4-tetramethylcyclobutyl)-4-(4-(2-((3-(2,6-dioxopiperidin-3-yl)-4-oxo-3,4-dihydrobenzo[d][1,2,3]triazin-6-yl)oxy)acetyl)piperazin-1-yl)benzamide] | 20 | –
33.6 | CC1(C)C(NC(=O)c2ccc(N3CCN(C(=O)C4CN(c5ccc6nnn(C7CCC(=O)NC7=O)c(=O)c6c5)C4)CC3)cc2)C(C)(C)C1Oc1ccc(C#N)c(Cl)c1 (stereo not shown) [Example 43, N-((1r,3r)-3-(3-chloro-4-cyanophenoxy)-2,2,4,4-tetramethylcyclobutyl)-4-(4-(1-(3-(2,6-dioxopiperidin-3-yl)-4-oxo-3,4-dihydrobenzo[d][1,2,3]triazin-6-yl)azetidine-3-carbonyl)piperazin-1-yl)benzamide] | 37.3 | –
21.1 | CC1(C)C(NC(=O)c2ccc(N3CCN(CCCC4CCN(C(=O)COc5ccc6nnn(C7CCC(=O)NC7=O)c(=O)c6c5)CC4)CC3)cc2)C(C)(C)C1Oc1ccc(C#N)c(Cl)c1 (stereo not shown) [Example 45, N-((1r,3r)-3-(3-chloro-4-cyanophenoxy)-2,2,4,4-tetramethylcyclobutyl)-4-(4-(3-(1-(2-((3-(2,6-dioxopiperidin-3-yl)-4-oxo-3,4-dihydrobenzo[d][1,2,3]triazin-6-yl)oxy)acetyl)piperidin-4-yl)propyl)piperazin-1-yl)benzamide] | 46.6 | –
35.2 | CC1(C)[C@H](NC(=O)c2ccc(N3CCN(CCCC4CCN(c5ccc6nnn(C7CCC(=O)NC7=O)c(=O)c6c5)CC4)CC3)cc2)C(C)(C)[C@H]1Oc1ccc(C#N)c(Cl)c1 (stereo partly shown) [Example 48, N-((1r,3r)-3-(3-chloro-4-cyanophenoxy)-2,2,4,4-tetramethylcyclobutyl)-4-(4-(3-(1-(3-(2,6-dioxopiperidin-3-yl)-4-oxo-3,4-dihydrobenzo[d][1,2,3]triazin-6-yl)piperidin-4-yl)propyl)piperazin-1-yl)benzamide] | 77 | –
5.8 | CC1(C)C(NC(=O)c2ccc(N3CCN(CC4(O)CCN(C(=O)CNc5ccc6nnn(C7CCC(=O)NC7=O)c(=O)c6c5)CC4)CC3)cc2)C(C)(C)C1Oc1ccc(C#N)c(Cl)c1 (stereo not shown) [Example 53, N-((1r,3r)-3-(3-chloro-4-cyanophenoxy)-2,2,4,4-tetramethylcyclobutyl)-4-(4-((1-((3-(2,6-dioxopiperidin-3-yl)-4-oxo-3,4-dihydrobenzo[d][1,2,3]triazin-6-yl)glycyl)-4-hydroxypiperidin-4-yl)methyl)piperazin-1-yl)benzamide] | 19.7 | –
7.7 | CC1(C)[C@H](NC(=O)c2ccc(N3CCN(CC4(O)CCN(C(=O)COc5ccc6nnn(C7CCC(=O)NC7=O)c(=O)c6c5)CC4)CC3)cc2)C(C)(C)[C@H]1Oc1ccc(C#N)c(Cl)c1 (stereo partly shown) [Example 54, N-((1r,3r)-3-(3-chloro-4-cyanophenoxy)-2,2,4,4-tetramethylcyclobutyl)-4-(4-((1-(2-((3-(2,6-dioxopiperidin-3-yl)-4-oxo-3,4-dihydrobenzo[d][1,2,3]triazin-6-yl)oxy)acetyl)-4-hydroxypiperidin-4-yl)methyl)piperazin-1-yl)benzamide] | 553 | –
21.3 | CC1(C)C(NC(=O)c2ccc(N3CCN(CC4(O)CCN(C(=O)C5CN(c6ccc7nnn(C8CCC(=O)NC8=O)c(=O)c7c6)C5)CC4)CC3)cc2)C(C)(C)C1Oc1ccc(C#N)c(Cl)c1 (stereo not shown) [Example 56, N-((1r,3r)-3-(3-chloro-4-cyanophenoxy)-2,2,4,4-tetramethylcyclobutyl)-4-(4-((1-(1-(3-(2,6-dioxopiperidin-3-yl)-4-oxo-3,4-dihydrobenzo[d][1,2,3]triazin-6-yl)azetidine-3-carbonyl)-4-hydroxypiperidin-4-yl)methyl)piperazin-1-yl)benzamide] | 36.1 | –
13.3 | CC1(C)C(NC(=O)c2ccc(N3CCN(C(=O)CN4CCN(c5ccc6nnn(C7CCC(=O)NC7=O)c(=O)c6c5)CC4)CC3)cc2)C(C)(C)C1Oc1ccc(C#N)c(Cl)c1 (stereo not shown) [Example 57, N-((1r,3r)-3-(3-chloro-4-cyanophenoxy)-2,2,4,4-tetramethylcyclobutyl)-4-(4-(2-(4-(3-(2,6-dioxopiperidin-3-yl)-4-oxo-3,4-dihydrobenzo[d][1,2,3]triazin-6-yl)piperazin-1-yl)acetyl)piperazin-1-yl)benzamide] | 225 | –
11.4 | CC1(C)C(NC(=O)c2ccc(N3CCN(CC4CCN(C(=O)CN5CCN(c6ccc7nnn(C8CCC(=O)NC8=O)c(=O)c7c6)CC5)CC4)CC3)cc2)C(C)(C)C1Oc1ccc(C#N)c(Cl)c1 (stereo not shown) [Example 58, N-((1r,3r)-3-(3-chloro-4-cyanophenoxy)-2,2,4,4-tetramethylcyclobutyl)-4-(4-((1-(2-(4-(3-(2,6-dioxopiperidin-3-yl)-4-oxo-3,4-dihydrobenzo[d][1,2,3]triazin-6-yl)piperazin-1-yl)acetyl)piperidin-4-yl)methyl)piperazin-1-yl)benzamide] | 330 | –
20.3 | CC1(C)C(NC(=O)c2ccc(N3CCN(CC4CCN(CCNC(=O)COc5ccc6nnn(C7CCC(=O)NC7=O)c(=O)c6c5)CC4)CC3)cc2)C(C)(C)C1Oc1ccc(C#N)c(Cl)c1 (stereo not shown) [Example 60, N-((1r,3r)-3-(3-chloro-4-cyanophenoxy)-2,2,4,4-tetramethylcyclobutyl)-4-(4-((1-(2-(2-((3-(2,6-dioxopiperidin-3-yl)-4-oxo-3,4-dihydrobenzo[d][1,2,3]triazin-6-yl)oxy)acetamido)ethyl)piperidin-4-yl)methyl)piperazin-1-yl)benzamide] | 3280 | –

SMILES | Degradation (1 μM treated in LNCaP, % AR remaining) [1] [%] | CC50 [2] [nM] | CC50 [3] [nM]
CC1(C)[C@H](NC(=O)c2ccc(C#CCC3CCN(C(=O)C4CCN(c5ccc6nnn(C7CCC(=O)NC7=O)c(=O)c6c5)CC4)CC3)cc2)C(C)(C)[C@H]1Oc1ccc(C#N)c(Cl)c1 (stereo partly shown) [Example 86, N-((1r,3r)-3-(3-chloro-4-cyanophenoxy)-2,2,4,4-tetramethylcyclobutyl)-4-(3-(1-(1-(3-(2,6-dioxopiperidin-3-yl)-4-oxo-3,4-dihydrobenzo[d][1,2,3]triazin-6-yl)piperidine-4-carbonyl)piperidin-4-yl)prop-1-yn-1-yl)benzamide] | 20 | – | 34.9
